Data reported in US9862684B2, “Modulation of K2P channels” (The Regents of the University of California, priority 2013, dated 2018).

Target: T1, K2P2.1 (TREK-1) W275S (Mus musculus, UniProt P97438, W290S)
T1 construct: expressed in transfected cells; host or cells: Xenopus oocytes
T1 sequence (P97438 1-411 isoform P97438-2 W275S): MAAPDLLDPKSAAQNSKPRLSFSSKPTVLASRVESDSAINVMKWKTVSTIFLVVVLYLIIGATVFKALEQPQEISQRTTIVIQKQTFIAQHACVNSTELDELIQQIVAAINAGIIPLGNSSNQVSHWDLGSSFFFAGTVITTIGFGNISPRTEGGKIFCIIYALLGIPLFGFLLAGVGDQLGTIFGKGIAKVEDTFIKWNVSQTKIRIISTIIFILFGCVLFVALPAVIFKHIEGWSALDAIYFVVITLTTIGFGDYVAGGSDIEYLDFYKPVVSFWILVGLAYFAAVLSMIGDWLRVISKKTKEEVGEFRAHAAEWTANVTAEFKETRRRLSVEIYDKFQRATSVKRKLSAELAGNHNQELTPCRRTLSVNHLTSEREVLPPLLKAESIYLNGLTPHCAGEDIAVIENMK
Experiment: Two-electrode voltage clamp, Xenopus oocytes, C-type gate mutant W275S
Type: cell-based, Murine
Procedure: I-V curves were measured by two-electrode voltage clamp of Xenopus oocytes in b, 90 mM [K^+]o. or c-e, 2 mM [K^+]o. […] Data (were measured at 20 mV (90 mM [K^+]o) or 0 mV (2 mM [K^+]o), normalized to basal channel activity, and fitted to the Hill equation. Error bars indicate s.e., n≧6, N≧2.
Murine K2P channels were cloned into pGEMHE/pMO {Bagriantsev, 2011}, IRES-GFP (Invitrogen), or pYES2-MET25 (high copy 2μ, URA3) {Minor, 1999} for expression in oocytes, HEK-293T cells, and yeast, respectively, using standard molecular biology procedures, and verified by DNA sequencing.
Two-electrode voltage clamp recordings were performed from defolliculated stage V-VI Xenopus oocytes 24-48 hours after injection with 0.015-6.0 ng cRNA, using microelectrodes (0.3-3.0 MΩ) filled with 3M KCl. Data was acquired using the GeneClamp 500B (MDS Analytical Technologies) amplifier controlled by the pClamp software (Molecular Devices), and digitized at 1 kHz using Digidata 1332A (MDS Analytical Technologies). Recording solutions (mM): 2K (96 NaCl, 2 KCl, 1.8 CaCl2, 2 MgCl2), 90K (90 KCl, 8 NaCl, 1.8 CaCl2, 2 MgCl2), were buffered 5 mM HEPES pH 7.4. For K2P recordings, currents we elicited by a 1 second long ramp from −150 to +50 mV from a holding potential of −80 mV (2K), or −100 to +50 mV from a holding potential of 0 mV (90K). […]

Q: Which EC50 does the source give for `CC1(C)c2cc(Cl)ccc2N(CCc2nnn[nH]2)c2ccc(Cl)cc21` [ML67-33, 2,7-dichloro-9,9-dimethyl-10-[2-(1H-tetrazol-5-yl)ethyl]acridine] here?
A: 21.8 ± 1.3 µM

Q: And the “Emax (fold)” value?
A: 5.1 ± 0.6 fold
